From article PMC5209718, “Piscidin-1-analogs with double L- and D-lysine residues exhibited different conformations in lipopolysaccharide but comparable anti-endotoxin activities” (Scientific Reports, 2017) come the findings set out here.

Converted amounts (≈) assume the structure as drawn. Where two headings read alike, the source gives them in different places. Residues, ends and D or L forms follow the SMILES beside them.

One may read the MIC as the lowest concentration that inhibits growth of the organism.

Data set [1] relates to Staphylococcus aureus (ATCC 1708 MRSA). Kind of data set: microbe, parasite or virus in culture. The conditions noted are these: ATCC 1708. From the text: (§1) Piscidin-1 and its analogs were examined for bacterial growth-inhibiting activity in liquid cultures against Gram-positive bacteria including MRSA strains and Gram-negative bacteria (Table 2). […] The therapeutic index is a parameter that signify the specificity or selectivity of antimicrobial agents towards microorganisms over mammalian cells.
(§2) Antibacterial assays with all the peptides were done in 96-well microtiter plates against different Gram-positive, Gram-negative and resistant bacteria as described earlier.

In data set [2] the test system is Staphylococcus aureus (ATCC 33592 Gentamycin Resistant). The data set is described as follows: microbe, parasite or virus in culture. The conditions noted are these: ATCC 33592.
From the text: as §1, §2

Data set [3] deals with Staphylococcus aureus (ATCC 700698 MRSA). Kind of data set: microbe, parasite or virus in culture. The conditions noted are these: ATCC 700698.
From the text: as §1, §2

For data set [4], the system named is Staphylococcus aureus (ATCC BAA-44 MRSA). The data set is described as follows: microbe, parasite or virus in culture. The conditions noted are these: ATCC BAA-44.
From the text: as §1, §2

In data set [5] the test system is Staphylococcus aureus (ATCC 700699 MRSA). The data set is described as follows: microbe, parasite or virus in culture. To be noted: ATCC 700699.
From the text: as §1, §2

For data set [6], the system named is E. coli 0111:B4 LPS-administered mice. The data set is described as follows: In vivo anti-LPS activity: survival of LPS-administered mice (septic shock). To be noted: BALB/c mice, monitored 7 days; for survival of LPS-administered mice: n = 5.
Method: Septic shock in BALB/c mice was induced by intraperitoneal (i.p.) injection of E. coli LPS (12 mg/kg) followed by i.p. injection of T15,21K-piscidin-1 (0.5 mg/Kg) or T15,21dK-piscidin-1 (1 mg/Kg) or polymyxin B (1 mg/Kg) ~5 min later. Mice treated with only saline was taken as control. Survival of the animals (n = 5) was monitored for 7 days (***p < 0.0001, log-rank test).
Polymyxin B was taken as the positive control and the experiments were performed as reported earlier[14][30][31].
In vivo studies, treat ment of Mice
Female BALB/c mice (National laboratory animal centre, central drug research institute,
Lucknow) we re given a s tandard laborato r y diet an d water ad libitum and housed under controlled
environmental conditions. The mice wer e approx imatel y 25 g each at the st art of experiments. All
the mice were divided into experimental groups for the administration of LPS and peptides. Mice
were treated with 12 m g/ kg E. coli 0111: B4 LPS i n presen ce and in absen ce of peptide in different
experimental groups. The mice treated with saline onl y, in absence of LP S were considered as
experimental controls. To study the efficacy of a peptide in neutralizing LPS-induced pro-
inflammatory responses in mice ~5 min post LPS treatment, the respective peptide was
administered i.p. at a site other than the one, used for LPS injection. […] Survival of mice was
monitored for 7 da ys. Survival of mice was also mo nitored following th e treatment of onl y p eptides
for investigating their toxic effects.
Data set [7] concerns human red blood cells (hRBCs). The class given is cell-based. The text has this: Cytotoxic activity of piscidin-1 and its designed analogs was examined by assaying the lysis of human red blood cells (hRBCs) and the viability of murine 3T3 cells in presence of these peptides. […] Introduction of D-lysine (dK)residues instead of threonine residues at 15th & 21st positions further reduced the haemolytic activity of piscidin-1 (Fig. 1A). Overall, haemolytic activity of these peptides against hRBCs followed the order piscidin-1 > T15K-piscidin-1 > T15dK-piscidin-1 > T15,21K-piscidin-1 > T15,21dK-piscidin-1. Viability of 3T3 cells as determined by MTT assay in the presence of these peptides followed the same trend as their haemolytic activity (Fig. 1B).
Haemolytic activity of the peptides against human red blood cells in PBS was performed by assaying the ability of the peptides to lyse the hRBCs[24][48]. For this purpose, fresh human red blood cells (hRBCs) were collected in the presence of an anti-coagulant from a healthy volunteer. After washing the blood three times with PBS haemolytic activity of the peptides were determined as reported previously. Methodology of our experiment with human blood was in accordance with relevant guidelines and regulations of CSIR-central drug research institute ethics committee and was approved by it with approval No. CDRI/IEC/2014/A5. Further, informed consent was obtained from the healthy volunteer before collection of blood as per the guideline of our Institutional ethics committee.

The conditions of data set [8]: no LPS, BALB/c mice, data not shown.
Data set [9] deals with K. pneumoniae (ATCC 27736). The data set is described as follows: microbe, parasite or virus in culture. The conditions noted are these: ATCC 27736. The class given is cell-based.
From the text: as §1, §2

In another data set the test system is B. subtilis (ATCC 6633). The data set is described as follows: microbe, parasite or virus in culture. The conditions noted are these: ATCC 6633. The class given is cell-based.
From the text: as §1, §2

The test system of data set [10] is Staphylococcus aureus (ATCC 29213). Kind of data set: microbe, parasite or virus in culture. To be noted: ATCC 29213. The class given is cell-based.
From the text: as §1, §2

The subject of data set [11] is P. aeruginosa (ATCC BAA-427). Kind of data set: microbe, parasite or virus in culture. It counts as cell-based. The conditions noted are these: ATCC BAA-427.
From the text: as §1, §2

The subject of data set [12] is Staphylococcus aureus (ATCC 25923). The data set is described as follows: microbe, parasite or virus in culture. The class given is cell-based. The conditions noted are these: ATCC 25923.
From the text: as §1, §2

Another data set deals with E. coli (ATCC 25922). The data set is described as follows: Antibacterial activity (MIC), liquid culture in 96-well microtiter plates. It counts as cell-based. To be noted: means of three independent experiments each in duplicate ± SD, read-out: Minimum inhibitory conc. (MIC) against bacteria 11.
From the text: as §1, §2

Turning to `CC[C@H](C)[C@H](NC(=O)CNC(=O)[C@H](CCCNC(=N)N)NC(=O)[C@H](Cc1ccccc1)NC(=O)[C@@H](NC(=O)[C@H](Cc1c[nH]cn1)NC(=O)[C@H](Cc1c[nH]cn1)NC(=O)[C@H](Cc1ccccc1)NC(=O)[C@@H](N)Cc1ccccc1)[C@@H](C)CC)C(=O)N[C@H](C(=O)N[C@@H](Cc1c[nH]cn1)C(=O)N[C@H](C(=O)NCC(=O)N[C@@H](CCCCN)C(=O)N[C@H](CCCCN)C(=O)N[C@H](C(=O)N[C@@H](Cc1c[nH]cn1)C(=O)N[C@@H](CCCNC(=N)N)C(=O)N[C@@H](CC(C)C)C(=O)N[C@H](C(=O)N[C@H](CCCCN)C(=O)NCC(N)=O)C(C)C)[C@@H](C)CC)C(C)C)C(C)C` [T15,21dK Piscidin-1] (HELM PEPTIDE1{F.F.H.H.I.F.R.G.I.V.H.V.G.K.[dK].I.H.R.L.V.[dK].G.[am]}$$$$V2.0), the “Minimum inhibitory conc. (MIC) against bacteria 7” value in [1] was 5.0 ± 0.7 µM (≈ 13.1 µg/mL). Further, the “Minimum inhibitory conc. (MIC) against bacteria 4” value in [2] was 5.0 ± 0.7 µM (≈ 13.1 µg/mL). The “Minimum inhibitory conc. (MIC) against bacteria 6” value in data set [3] turned out to be 10.0 ± 1.4 µM (≈ 26.3 µg/mL). In addition, in [4], the “Minimum inhibitory conc. (MIC) against bacteria 5” value was 5.0 ± 0.7 µM (≈ 13.1 µg/mL). Further, the “Minimum inhibitory conc. (MIC) against bacteria 3” value in data set [5] came out at 10.0 ± 1.4 µM (≈ 26.3 µg/mL). Moreover, the “survival of LPS-administered mice” value in data set [6] (peptide 1.0 mg/Kg i.p. ~5 min after LPS 12.0 mg/Kg i.p.) stood at 100%. Besides, the “mortality rate of LPS-administered mice” value in [6] (single dose 1.0 mg/kg i.p. after LPS 12 mg/kg) is recorded as “zero”. Also, the “HC50, peptide concentration leading to 50% lysis of human RBC” value in [7] is 500 µM. For the same compound, in [8] (1.0 mg/kg), the “survival of control mice treated only with peptide” value was determined as 100%. In addition, the “Minimum inhibitory conc. (MIC) against bacteria 10” value in data set [9] came to 5.0 ± 0.7 µM (≈ 13.1 µg/mL). In addition, in the data set on B. subtilis (ATCC 6633), the “Minimum inhibitory conc. (MIC) against bacteria 9” value came to 9.0 ± 1.3 µM (≈ 23.6 µg/mL). Also, the “Minimum inhibitory conc. (MIC) against bacteria 2” value in data set [10] was 5.0 ± 0.7 µM (≈ 13.1 µg/mL). The “Minimum inhibitory conc. (MIC) against bacteria 8” value in data set [11] stood at 9.0 ± 1.3 µM (≈ 23.6 µg/mL). Besides, the “Minimum inhibitory conc. (MIC) against bacteria 1” value in [12] stood at 5.0 ± 0.7 µM (≈ 13.1 µg/mL). For the same compound, the MIC in the data set on E. coli (ATCC 25922) was found to be 5.0 µM (≈ 13.1 µg/mL).
“H-FFHHIFRGIVHVGKKIHRLVKG-NH2 [T15,21K Piscidin-1]”: the “Minimum inhibitory conc. (MIC) against bacteria 7” value in [1] came out at 1.25 ± 0.3 µM. In addition, the “Minimum inhibitory conc. (MIC) against bacteria 4” value in [2] turned out to be 2.5 ± 0.4 µM. Besides, in data set [3], the “Minimum inhibitory conc. (MIC) against bacteria 6” value was found to be 2.5 ± 0.4 µM. The “Minimum inhibitory conc. (MIC) against bacteria 5” value in [4] was 1.25 ± 0.3 µM. In [5], the “Minimum inhibitory conc. (MIC) against bacteria 3” value amounted to 2.5 ± 0.4 µM. Also, the “survival of LPS-administered mice” value in [6] (peptide 0.5 mg/Kg i.p. ~5 min after LPS 12.0 mg/Kg i.p.) is 100%. The “mortality rate of LPS-administered mice” value in data set [6] (single dose 0.5 mg/kg i.p. after LPS 12 mg/kg) is “zero”. Further, the “HC50, peptide concentration leading to 50% lysis of human RBC” value in [7] worked out at 200 µM. In addition, the “survival of control mice treated only with peptide” value in [8] (0.5 mg/kg) was determined as 100%. The “Minimum inhibitory conc. (MIC) against bacteria 10” value in data set [9] amounted to 3.0 ± 0.4 µM. For the same compound, the “Minimum inhibitory conc. (MIC) against bacteria 9” value with B. subtilis (ATCC 6633) worked out at 5.0 ± 0.7 µM. Further, in [10], the “Minimum inhibitory conc. (MIC) against bacteria 2” value was found to be 2.5 ± 0.4 µM. Further, the “Minimum inhibitory conc. (MIC) against bacteria 8” value in [11] stood at 5.0 ± 0.7 µM. For the same compound, in data set [12], the “Minimum inhibitory conc. (MIC) against bacteria 1” value is 1.25 ± 0.3 µM. Moreover, the MIC with E. coli (ATCC 25922) was 2.0 µM.
